From US12152057B2, “Fusion proteins for inhibiting angiogenesis” (priority 2015, dated 2024)

Legend:
[1] = test system: VEGF-induced leakage in Dutch Belted Rabbits; experiment: VEGF-induced retinal leakage in Dutch Belted rabbits (Example 8); format: in vivo; details: FA scale 0 (normal) to 4 (severe)
Method: Fusion proteins of the invention were tested in an in vivo model of vascular permeability to determine their efficacy in preventing vascular leakage. In this model, VEGF was intravitreally injected to the vitreous of rabbit eyes to induce uncontrolled retinal leakage. Aflibercept (Eylea®, Regeneron), a recombinant fusion protein consisting of portions of human VEGFR1 and VEGFR2 fused to the Fc portion of human IgG1, and bevacizumab (Avastin®, Roche), a recombinant humanized monoclonal antibody that blocks angiogenesis by inhibiting VEGF-A were included as Positive Controls 2 and 6, respectively.
Dutch Belted rabbits were anesthetized using isoflurane (3-5%), and their eyes were treated with ophthalmic Betadine solution. The rabbits' eyes were then washed with sterile saline, and lidocaine hydrochloride (2% injectable) or proparacaine (0.5%) was applied to the ocular surface.
On Day 1, Dutch Belted rabbits were intravitreally injected with fusion proteins of the invention, vehicle (negative) control, or reference (positive) controls at predetermined doses using a BD 300 μL insulin syringe (31 ga× 5/16 inch). […]
Signs of ocular irritation were scored using the Draize scoring system prior to fusion protein dosing, VEGF induction, and assessments. […]

[2] = test system: VEGF-induced leakage in Dutch Belted Rabbits; experiment: Dose-response VEGF-induced retinal leakage in Dutch Belted rabbits (Example 9); format: in vivo; details: FA scale 0 (normal) to 4 (severe)
Method: Fusion proteins of the invention were tested in an in vivo model of retinal vascular permeability at varying doses to determine their dose-response effectiveness in preventing vascular leakage. In this model, human VEGF165 was intravitreally injected to the vitreous of rabbit eyes to induce retinal leakage.
On Day 1, Dutch Belted rabbits were intravitreally injected with Fusion Protein 1 according to an embodiment of the invention at various doses, vehicle (negative) control, or reference (positive) controls. Vascular leakage was induced by injecting exogenous VEGF165 into the same eyes on Day 3.
FAs were conducted on all dosage groups 3 days after the VEGF-induction (Day 6) to assess leakiness and tortuosity using a scale from 0 (normal) to 4 (severe).
Signs of ocular irritation were scored using the Draize scoring system prior to fusion protein dosing, VEGF induction, and assessments. According to the Draize analysis, all of the rabbit eyes were normal prior to the initiation of dosing. […] There were no drug-related findings evident during the course of the study.

human VEGF165 = biological target: T1, human VEGF165 (Homo sapiens, UniProt P15692); experiment: Direct binding ELISA to human VEGF165; details: coated VEGF165 1 μg/mL, read-out: EC50 (nM), binding affinity to VEGF165
T1 sequence (P15692 27-191 isoform P15692-4): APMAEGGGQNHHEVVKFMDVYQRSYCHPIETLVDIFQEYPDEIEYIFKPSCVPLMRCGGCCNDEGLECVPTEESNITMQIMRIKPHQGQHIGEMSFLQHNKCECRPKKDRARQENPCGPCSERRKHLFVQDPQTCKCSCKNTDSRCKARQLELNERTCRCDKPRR
Method: A direct binding enzyme-linked immunosorbent assay (ELISA) was used to measure the binding affinity of fusion proteins of the invention to human VEGF165, a splice variant of VEGF-A.
100 μL of a coating solution (1 μg/mL VEGF165 in 1× phosphate buffered saline (PBS), pH 7.2) were added to each well of a 96-well ELISA plate, and the plate was incubated overnight at 4° C. The wells were washed twice with 400 μL of 1×PBS buffer, and excess liquid was carefully removed with a paper towel.
400 μL of a blocking solution (5 g non-fat skim milk in 100 mL 1×PBS) were added to each well, and the plate was incubated at room temperature for 1 hour. The wells were washed twice with 1×PBS buffer.
Fusion protein and control samples were serially diluted three-fold in blocking solution, with a highest protein concentration of 10 nM. 100 μL of the serially diluted samples were added to each well. The plate was covered and incubated on a plate shaker (˜100 rpm) for 1 hour at room temperature. The wells were washed three times with wash buffer (1×PBS, 0.05% Tween-20). […]
(§1) The optical density (OD) of each well was determined using an ELISA plate reader at an absorbance wavelength of 450 nm. The absorbance was plotted against the protein concentration of the fusion protein or the control, and the concentration at which the signal was half the maximal effective concentration (EC50) was determined.

[3] = test system: human umbilical vein endothelial cell (HUVEC); experiment: VEGF165-induced HUVEC proliferation assay (MTS); format: cell-based; details: VEGF165 8 ng/mL, 72 hours, read-out: IC50 (nM), inhibition of cell proliferation
Method: A human umbilical vein endothelial cell (HUVEC) proliferation assay was carried out to test the functionality of the fusion proteins of the invention. A commercially available VEGF Trap, aflibercept (Eylea®, Regeneron), was included as Positive Control 2.
100 μL of a coating solution (1% gelatin in double distilled water) were added to each well of a 96-well ELISA plate, and the plate was incubated for 2 hours or overnight at 37° C. The wells were washed twice with 1×PBS buffer.
3500 counts of human umbilical vein endothelial cells in endothelial cell growth medium were added to each well, and the plate was incubated overnight at 37° C.
Fusion protein samples were diluted in assay buffer (Medium-199 1× Earle's Salts, 10% fetal bovine serum, 10 mM HEPES, lx antibiotic/antimycotic), with a highest protein concentration of 300 nM. The fusion protein samples were mixed with VEGF165 (8 ng/mL), and the mixtures were incubated overnight at room temperature. The wells were then washed with 200 μL of 1×PBS.
100 μL of the VEGF165/sample mixture were added to each well, and the plates were incubated for 72 hours at 37° C. with 5% CO2. […]
The OD of each well was determined using an ELISA plate reader at an absorbance wavelength of 490 nm. […]

HUVECs = experiment: HUVEC tube formation on matrigel; format: cell-based; details: Homo sapiens, 18-hour incubation, read-out: IC50 (μM), inhibition of tube formation
Method: HUVECs (1.5×10^4 cells/well) were placed in a 96-well matrigel-coated plate. Six doses of Fusion Protein 1 (0.1 μM, 0.3 μM, 1 μM, 3 μM, 10 μM, and 30 μM) and vehicle were added to each well in growth media under an atmosphere of 5% CO2 at 37° C. After an 18-hour incubation period, morphology of the endothelial cell tubes, which resemble a capillary-like network, were evaluated by photomicroscopy. Disruption (anti-angiogenesis) of total tube length was measured from each photograph and determined relative to the vehicle control group. […] Suramin was used as an anti-angiogenic positive control (Positive Control 5) for all studies.

[4] = test system: integrin αvβ3 (CHO-αvβ3 cells); experiment: Adhesion of αvβ3-overexpressing CHO cells to fibrinogen; format: cell-based; details: CHO-αvβ3 cell adhesion to fibrinogen
Method: (§2) The adhesion of αvβ3-overexpressing CHO cells to fibrinogen and α5β1-expressing K562 cells to fibronectin were evaluated in the presence of fusion proteins.
(§3) 96-well Immulon-2 microtiter plates (Costar, Corning, NY) were coated with 100 μL of phosphate-buffered saline (PBS: 10 mM phosphate buffer, 0.15 M NaCl, pH 7.4) containing substrates at a concentration of 50-500 nM, and incubated overnight at 4° C. The substrates and their coating concentrations were fibrinogen (Fg) at 200 μg/mL and fibronectin (Fn) at 25 μg/mL. Non-specific protein binding sites were blocked by incubating each well with 200 μL of heat-denatured 1% bovine serum albumin (BSA) (Calbiochem) at room temperature for 1.5 hours. The heat-denatured BSA was discarded and each well was washed twice with 200 μL of PBS.
(§4) CHO cells that expressed the integrin αvβ3 (CHO-αvβ3) from the same source of Patent Application No. PCT/US2015/46322 were maintained in DMEM. Human erythroleukemia K562 was maintained as written in Patent Application No. PCT/US2015/46322 from ATCC and cultured in Roswell Park Memorial Institute (RPMI)-1640 medium containing 5% FCS. […] Bound cells were quantified by crystal violet staining. […] The resulting absorbance was read at 600 nm and the readings were correlated with the number of adhering cells. […]

integrin αvβ3 = integrin αvβ3 (Homo sapiens, UniProt P05106+P06756); experiment: Competitive binding ELISA of soluble integrin αvβ3 to vitronectin; details: vitronectin-coated plate
integrin αvβ3, sequence (P06756 31-889 limits assumed): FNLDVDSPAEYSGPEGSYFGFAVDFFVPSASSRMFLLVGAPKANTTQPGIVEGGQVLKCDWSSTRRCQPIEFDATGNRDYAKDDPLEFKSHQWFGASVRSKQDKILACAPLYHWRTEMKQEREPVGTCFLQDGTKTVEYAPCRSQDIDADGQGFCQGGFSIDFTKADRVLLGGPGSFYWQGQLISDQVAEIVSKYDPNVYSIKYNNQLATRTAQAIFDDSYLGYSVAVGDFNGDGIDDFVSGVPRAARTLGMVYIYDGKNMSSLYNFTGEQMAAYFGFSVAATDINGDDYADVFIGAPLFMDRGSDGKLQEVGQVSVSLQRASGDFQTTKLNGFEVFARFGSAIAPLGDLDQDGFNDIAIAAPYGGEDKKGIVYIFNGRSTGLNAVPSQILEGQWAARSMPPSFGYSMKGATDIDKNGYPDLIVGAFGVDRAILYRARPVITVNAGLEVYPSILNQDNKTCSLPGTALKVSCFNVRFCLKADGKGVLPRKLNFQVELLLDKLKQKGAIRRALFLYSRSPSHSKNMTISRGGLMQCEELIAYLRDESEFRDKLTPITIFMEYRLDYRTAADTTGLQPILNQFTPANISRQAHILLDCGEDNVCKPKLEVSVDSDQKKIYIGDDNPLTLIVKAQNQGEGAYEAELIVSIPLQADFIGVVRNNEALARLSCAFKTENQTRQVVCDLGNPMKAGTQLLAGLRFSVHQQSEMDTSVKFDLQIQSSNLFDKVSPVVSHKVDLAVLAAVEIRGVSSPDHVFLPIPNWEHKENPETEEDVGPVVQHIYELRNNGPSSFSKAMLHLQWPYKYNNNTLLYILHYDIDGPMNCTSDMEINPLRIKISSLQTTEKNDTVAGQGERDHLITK
integrin αvβ3, sequence (P06756 891-992 limits assumed): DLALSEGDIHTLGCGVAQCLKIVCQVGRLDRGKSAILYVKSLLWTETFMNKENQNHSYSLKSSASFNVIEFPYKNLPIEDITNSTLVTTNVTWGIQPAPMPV
integrin αvβ3, sequence (P05106 27-718 limits assumed): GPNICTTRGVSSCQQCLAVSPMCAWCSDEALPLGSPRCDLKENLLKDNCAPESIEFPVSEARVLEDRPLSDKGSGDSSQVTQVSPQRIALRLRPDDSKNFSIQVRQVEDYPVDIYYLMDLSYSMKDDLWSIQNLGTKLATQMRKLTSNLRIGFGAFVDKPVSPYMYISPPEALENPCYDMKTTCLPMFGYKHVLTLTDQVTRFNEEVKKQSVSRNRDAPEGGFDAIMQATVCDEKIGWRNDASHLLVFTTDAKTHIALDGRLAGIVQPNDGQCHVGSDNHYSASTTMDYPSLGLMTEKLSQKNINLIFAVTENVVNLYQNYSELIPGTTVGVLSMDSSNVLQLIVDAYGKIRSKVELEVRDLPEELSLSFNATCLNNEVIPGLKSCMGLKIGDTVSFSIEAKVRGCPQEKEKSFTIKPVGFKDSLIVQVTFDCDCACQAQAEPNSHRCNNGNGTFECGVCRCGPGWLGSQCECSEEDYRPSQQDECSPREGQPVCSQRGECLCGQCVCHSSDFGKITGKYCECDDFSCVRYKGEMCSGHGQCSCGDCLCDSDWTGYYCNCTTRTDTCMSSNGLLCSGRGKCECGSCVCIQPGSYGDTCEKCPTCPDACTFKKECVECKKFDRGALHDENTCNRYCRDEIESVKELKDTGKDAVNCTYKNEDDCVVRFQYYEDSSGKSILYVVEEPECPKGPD
Method: The competitive binding was used to measure the binding affinity of Fusion Protein 1 of the invention to integrin αvβ3.
1 μg/mL victronectin dissolved in coating solution were added to each well of a 96-well ELISA plate, and the plate was incubated overnight at 4° C. The wells were washed twice with PBS buffer, and excess liquid was carefully removed with a paper towel.
Blocking solution (5 g non-fat skim milk in 100 mL 1×PBS) were added to each well, and the plate was incubated at room temperature for 1 hour. The wells were washed twice with 1×PBS buffer.
One hundred microliters […] of the serially diluted samples were added to each well. The plate was covered and incubated on a plate shaker (˜100 rpm) for 1 hour at room temperature. The wells were washed three times with wash buffer (1×PBS, 0.05% Tween-20).
Diluted primary anti-integrin αv antibody was added and incubated, then washed. Horseradish peroxidase-conjugated goat anti-human IgG Fc specific antibodies in blocking solution were added to each well. […]
as §1, with “inhibition” for “effective”, “(IC50)” for “(EC50)”

[5] = biological target: T2, integrin α5β1 (K562 cells) (Homo sapiens, UniProt P05556+P08648); experiment: Adhesion of α5β1-expressing K562 cells to fibronectin; format: cell-based; details: K562 cell adhesion to fibronectin
T2 construct: α5β1-expressing K562 cells to fibronectin; host or cells: K562 human erythroleukemia cells
T2 sequence (P08648 42-894 limits assumed): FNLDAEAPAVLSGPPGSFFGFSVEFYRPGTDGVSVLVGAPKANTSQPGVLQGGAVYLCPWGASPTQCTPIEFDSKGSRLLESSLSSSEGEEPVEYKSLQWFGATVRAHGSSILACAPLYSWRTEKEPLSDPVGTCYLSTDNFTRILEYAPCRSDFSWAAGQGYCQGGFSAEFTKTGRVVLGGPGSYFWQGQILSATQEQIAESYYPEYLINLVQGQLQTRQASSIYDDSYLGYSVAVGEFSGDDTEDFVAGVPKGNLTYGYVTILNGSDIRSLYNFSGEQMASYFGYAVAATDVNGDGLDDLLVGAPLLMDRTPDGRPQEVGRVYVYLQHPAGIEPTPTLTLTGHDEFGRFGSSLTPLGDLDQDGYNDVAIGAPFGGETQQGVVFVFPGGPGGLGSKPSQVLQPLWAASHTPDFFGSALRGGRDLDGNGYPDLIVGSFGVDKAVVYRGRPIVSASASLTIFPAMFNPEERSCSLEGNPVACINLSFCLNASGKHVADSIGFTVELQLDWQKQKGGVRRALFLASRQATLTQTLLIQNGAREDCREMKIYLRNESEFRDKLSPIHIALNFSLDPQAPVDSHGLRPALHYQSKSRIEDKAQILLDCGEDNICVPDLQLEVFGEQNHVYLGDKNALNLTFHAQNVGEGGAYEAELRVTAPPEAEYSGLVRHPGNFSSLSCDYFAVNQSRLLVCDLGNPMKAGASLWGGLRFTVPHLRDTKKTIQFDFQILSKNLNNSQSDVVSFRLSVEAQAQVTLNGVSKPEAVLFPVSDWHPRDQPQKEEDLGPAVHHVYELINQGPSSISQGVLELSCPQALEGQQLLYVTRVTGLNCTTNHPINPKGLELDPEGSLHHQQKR
T2 sequence (P08648 895-1049 limits assumed): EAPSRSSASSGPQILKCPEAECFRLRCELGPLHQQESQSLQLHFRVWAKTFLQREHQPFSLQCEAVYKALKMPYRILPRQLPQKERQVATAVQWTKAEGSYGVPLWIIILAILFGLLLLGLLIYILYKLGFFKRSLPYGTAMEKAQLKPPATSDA
T2 sequence (P05556 21-798): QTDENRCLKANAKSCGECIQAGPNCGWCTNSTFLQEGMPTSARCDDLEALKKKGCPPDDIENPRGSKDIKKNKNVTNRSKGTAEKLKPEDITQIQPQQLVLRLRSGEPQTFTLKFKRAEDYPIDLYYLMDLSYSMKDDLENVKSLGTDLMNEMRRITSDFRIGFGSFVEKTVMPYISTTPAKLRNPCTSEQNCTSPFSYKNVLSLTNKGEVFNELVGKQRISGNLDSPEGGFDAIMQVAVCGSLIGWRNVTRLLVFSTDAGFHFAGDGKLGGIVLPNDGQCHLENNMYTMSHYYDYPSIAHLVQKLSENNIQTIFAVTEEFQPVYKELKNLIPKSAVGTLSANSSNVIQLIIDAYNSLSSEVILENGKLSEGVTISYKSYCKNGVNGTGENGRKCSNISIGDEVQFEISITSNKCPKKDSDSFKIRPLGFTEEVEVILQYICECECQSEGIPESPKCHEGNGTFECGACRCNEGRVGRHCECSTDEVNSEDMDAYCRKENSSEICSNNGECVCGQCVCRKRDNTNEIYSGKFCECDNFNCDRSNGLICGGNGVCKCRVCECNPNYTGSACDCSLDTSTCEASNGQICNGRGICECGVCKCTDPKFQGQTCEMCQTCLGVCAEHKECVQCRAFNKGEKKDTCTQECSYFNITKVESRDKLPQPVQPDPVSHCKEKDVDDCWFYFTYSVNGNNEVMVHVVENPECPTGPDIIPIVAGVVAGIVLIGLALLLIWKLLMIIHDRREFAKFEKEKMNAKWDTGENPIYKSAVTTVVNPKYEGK
Method: as §2, §3, §4

With bevacizumab [Positive Control 6] the “Day 6 Mean Leakage Score” value ([1]; Example 8, intravitreal dose 1250 μg) was 0.25 and the “Day 6 Mean Leakage Score” value ([2]; Example 9, intravitreal dose 1250 μg) was 0.17.
For aflibercept [Positive Control 2], the “Day 6 Mean Leakage Score” value ([1]; Example 8, intravitreal dose 625 μg) was 0, the EC50 (human VEGF165) was 0.088 to 0.195 nM and the IC50 [3] was 0.026 to 0.136 nM. For the same molecule, the “Day 6 Mean Leakage Score” value ([2]; Example 9, intravitreal dose 625 μg) was 0.
`Cc1ccc(C(=O)Nc2ccc(S(=O)(=O)O)c3cc(S(=O)(=O)O)cc(S(=O)(=O)O)c23)cc1NC(=O)c1cccc(NC(=O)Nc2cccc(C(=O)Nc3cc(C(=O)Nc4ccc(S(=O)(=O)O)c5cc(S(=O)(=O)O)cc(S(=O)(=O)O)c45)ccc3C)c2)c1` [Positive Control 5, Suramin] was tested, and the IC50 (HUVECs) was 15.8 µM.
Rhodostomin [Positive Control 3] was tested, and the IC50 [4] was 24.7 nM, the IC50 (integrin αvβ3) was 2.6 to 3.2 nM and the IC50 [5] was 252 nM.
